According to publication PMC9578143, “Small-Molecule Ebselen Binds to YTHDF Proteins Interfering with the Recognition of N^6-Methyladenosine-Modified RNAs” (ACS Pharmacology & Translational Science, 2022):

Assays:
[1] = system: m6A levels in poly(A) purified mRNA of PC-3 cells; test: m6A level by 2D thin-layer chromatography; format: cell-based, human; details: 24 h time frame
Procedure: 100 ng of the poly(A) purified RNA was used as the input. Processed samples were analyzed on glass-backed PEI-cellulose plates (MerckMillipore) as described previously. Plates were exposed to a storage phosphor screen below saturation and processed on a Typhoon NIR laser scanner (Cytiva). Quantification of individual nucleotides was done with ImageJ. The relative amount of m6A was calculated as a percent of the total A (sum of both A and m6A spot intensity).

[2] = system: PC-3 cells; test: Cell viability assay (OZBlue); format: cell-based; details: Homo sapiens
Procedure: PC-3 cells were seeded and treated in 96 plates for 24, 48, and 72 h. Cell viability was assessed by adding to the cells 10% of the culture medium volume of the OZBlue reagent (OZ Biosciences). Cells were incubated at 37 °C for 1 h. Fluorescence was then determined (excitation 560 nm and emission 590 nm) by a Tecan microplate reader. Cell survival was calculated with respect to control (DMSO), and IC50 values were determined by fitting with GraphPad Prism software.

[3] = system: YTHDF1-3, ALKBH5 and METTL3 in PC-3 cells; test: Western blot of the epitranscriptome apparatus; format: cell-based, human; details: PC-3 cells, 24, 48 and 72 h, 10, 25, 50 μM; listed as ebselen
Procedure: Supplementary Figure 4. Protein level of the epitranscriptome apparatus and m6A level in PC-3 cells. (A) Representative western blot of YTHDF1-3, ALKBH5 and METTL3 in PC-3 cells after 24, 48 and 72 hours of ebselen treatment at three doses, 10, 25, 50 µM. (B) Quantification of the relative changes of YTHDF1-3, ALKBH5 and METTL3 in PC-3 cells after 24, 48 and 72 hours of ebselen treatment at three doses, 10, 25, 50 µM. […] Three biological replicates were performed. (C) Quantitative real-time PCR of YTHDF1-3, ALKBH5 and METTL3 in PC-3 cells after 24 hours of ebselen treatment at 10 µM.
Supplementary Figure 5. Caption: 2F o-Fc map (blue) is contoured at 1s for Ebselen and Cys412 side chain. The selenium anomalous map is contoured at 3.5σ and shown in orange.
(1 picture or pasted object on this page, not shown here)

[4] = target: T1, YTHDF1 domain (Homo sapiens, UniProt Q9BYJ9); test: High-throughput screen, tryptophan quenching, Z-score; format: binding; details: 5 μM protein, compounds at 10 μM
T1 construct: The human YTHDF1 YTH domain (amino acids 365–554, PDB: 4RCJ); host or cells: E. coli BL21(DE3)
T1 sequence (Q9BYJ9 365-554): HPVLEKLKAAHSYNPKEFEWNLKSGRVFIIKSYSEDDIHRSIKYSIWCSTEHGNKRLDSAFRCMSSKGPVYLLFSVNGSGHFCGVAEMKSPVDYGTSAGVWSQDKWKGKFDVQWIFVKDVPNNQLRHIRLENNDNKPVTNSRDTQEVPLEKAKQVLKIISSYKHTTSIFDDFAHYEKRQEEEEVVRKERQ
Procedure: A Z factor of 0.53 was obtained. The high-throughput screen was performed by using an automatic liquid handling (Freedom EVO, Tecan), filling black 384-well plates with 15 μL of 5 μM protein in 20 mM Tris (pH 7.5), 150 mM NaCl, and 10% glycerol, and then by adding the library of compounds at a final concentration of 10 μM. Fluorescence was measured immediately after compound addition. The library used was the Spectrum Collection (Microsource Discovery System, Inc.), composed of 2560 compounds, of whom 60% are clinically used drugs, 25% natural products, and 15% other bioactive molecules. The Z-score was calculated as (X – μp)/σp, where X is the fluorescence intensity of the protein. Candidate molecules were considered all of the ones that were under the threshold of Z = −3, while all of the ones over that value were discarded.

[5] = target: T2, YTHDF1 in HEK293T cells (Homo sapiens, UniProt Q9BYJ9); test: Cellular thermal shift assay (CETSA); format: cell-based; details: 50 μM, 3 h, versus DMSO, listed as Ebselen
T2 construct: endogenous in cells; host or cells: HEK293T
T2 sequence (Q9BYJ9 1-559): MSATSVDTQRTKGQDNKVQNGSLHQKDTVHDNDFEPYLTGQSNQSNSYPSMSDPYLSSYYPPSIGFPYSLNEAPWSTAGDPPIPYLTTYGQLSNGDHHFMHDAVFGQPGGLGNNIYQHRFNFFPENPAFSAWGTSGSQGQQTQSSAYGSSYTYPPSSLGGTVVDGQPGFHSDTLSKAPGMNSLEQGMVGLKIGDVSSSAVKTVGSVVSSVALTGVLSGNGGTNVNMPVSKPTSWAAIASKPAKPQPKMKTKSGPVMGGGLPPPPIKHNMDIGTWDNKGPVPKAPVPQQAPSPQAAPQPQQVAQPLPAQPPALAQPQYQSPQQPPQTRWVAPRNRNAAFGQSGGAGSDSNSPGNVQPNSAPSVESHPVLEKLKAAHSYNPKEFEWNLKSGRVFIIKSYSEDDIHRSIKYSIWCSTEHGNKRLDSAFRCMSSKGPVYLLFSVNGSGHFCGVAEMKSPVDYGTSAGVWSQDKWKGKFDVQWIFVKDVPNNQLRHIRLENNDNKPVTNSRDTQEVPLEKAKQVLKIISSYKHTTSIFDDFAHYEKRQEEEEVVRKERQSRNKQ
Procedure: HEK293T cells were seeded on 100 mm cell culture plate/s and allowed to adhere overnight. At 80% of confluency, cells were treated with 50 μM ebselen or DMSO as a control and incubated for 3 h at 37 °C in the CO2 incubator. Cells were centrifuged and resuspended in PBS and the protease inhibitor, at a concentration of (0.5–1) × 10^6 cells /100 μL of suspension. Lysates were divided into 9–10 aliquots of 100 μL into 0.2 mL microcentrifuge tubes and incubated at a temperature gradient on a PCR machine for 3 min. After incubation, lysates were frozen and thawed five times in dry ice and at 27 °C for 3 min each. All tubes were then centrifuged at 4 °C for 20 min at 12,000 rpm. Supernatants were then collected and transferred to clean tubes with a loading buffer 5×, heated for 10 min at 95 °C, and detected with Western Blot. The blot was then plotted with a YTHDF1 (Proteintech, 17479-1-AP) and actin (Cell Signaling, 12620S) primary antibody and subsequently with anti-Rabbit HRP (Santa Cruz, sc-2357) and anti-mouse HRP (Thermo Fisher, 61-6520). Chemiluminescent detection was performed using Amersham ECL Prime (GE Healthcare).

SMILES: O=c1c2ccccc2[se]n1-c1ccccc1 [Compound 1, 2-phenyl-1,2-benzisoselenazol-3(2H)-one]
- Overall m6A methylation level (in words) [1]: no significant changes
- IC50 ([2]; 24 h): 58.8 µM
- IC50 ([2]; 48 h): 49.6 µM
- IC50 ([2]; 72 h): 26.8 µM
- Expression level of the proteins of the epitranscriptome apparatus (in words) [3]: No changes were observed
- Mean(FI.z-score) [4]: -3.819
- ΔTagg of YTHDF1 (CETSA) [5]: 3.48 °C
